Columns and labels:
[1] = target: T1, PRPK in A431 lysates (Homo sapiens, UniProt Q96S44); test: Ex vivo binding assay, drug-conjugated Sepharose 4B beads with A431 cell lysates; details: pull-down with drug-conjugated Sepharose 4B beads
T1 construct: endogenous in cells; host or cells: A431
T1 sequence (Q96S44 1-253): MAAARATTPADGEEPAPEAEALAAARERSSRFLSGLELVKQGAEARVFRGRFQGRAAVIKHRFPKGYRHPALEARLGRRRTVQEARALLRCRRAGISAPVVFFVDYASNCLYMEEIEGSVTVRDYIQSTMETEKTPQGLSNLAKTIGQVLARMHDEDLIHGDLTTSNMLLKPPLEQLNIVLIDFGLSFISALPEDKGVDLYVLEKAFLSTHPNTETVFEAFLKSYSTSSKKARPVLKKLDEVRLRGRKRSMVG
Method: (§1) The interaction between rocuronium bromide and PRPK, and the inhibition of PRPK phosphorylation by rocuronium bromide was evaluated. In vitro and ex vivo binding assays were conducted using GST-PRPK or A431 cell lysates and rocuronium bromide-conjugated Sepharose 4B beads. FIG. 13A is a photograph illustrating a chromatographic plate showing the interaction and binding of PRPK with rocuronium bromide in A431 cells. FIG. 13B is a photograph illustrating a chromatographic plate showing the interaction and binding of rocuronium bromide with wildtype PRPK recombinant GST protein.
as §1, with “betamethasone 17-valerate” for “rocuronium bromide”, “using recombinant” for “using”, “betamethasone 17-valerate-conjugated” for “rocuronium bromide-conjugated”, “14A” for “13A”, “14B” for “13B”

[2] = test system: PRPK; test: SSL-induced phosphorylation of PRPK in JB6 cells; assay type: cell-based; details: increasing concentrations added to the medium
Method: The effect of the binding of rocuronium bromide to PRPK on SSL-induced phosphorylation of PRPK was evaluated. FIG. 13C is a photograph illustrating a chromatographic plate showing the reduction in SSL-induced phosphorylation of PRPK in JB6 cells with increasing concentrations of rocuronium bromide, added into the medium. Thus, rocuronium bromide inhibited sUVL-induced phosphorylation of PRPK.
The effect of the binding of betamethasone 17-valerate to PRPK on SSL-induced phosphorylation of PRPK was evaluated. FIG. 14C is a photograph illustrating a chromatographic plate showing the reduction in SSL-induced phosphorylation of PRPK in JB6 cells with an increasing concentration of betamethasone 17-valerate, added to the medium. Thus, betamethasone 17-valerate inhibited SSL-induced phosphorylation of PRPK.

[3] = test system: SSL-exposed skin of SKH-1 hairless mouse; test: Acute SSL-induced skin inflammation in SKH-1 hairless mouse skin (H&E, p-PRPK staining and blot); assay type: in vivo; details: for sUV-induced increase in PRPK expression / sUV-induced increase in epidermal thickness: topical in cream carrier, 24 h after SSL irradiation, vs untreated sUV-exposed group; for phosphorylation of PRPK in sUV-treated mouse skin / sUV-induced phosphorylation on increasing the concentration: topical treatment; for sUV-induced phosphorylation on increasing the concentration: higher concentration
Method: PRPK phosphorylation induced by sUV is a potent stimulator of skin inflammation. Inflammation contributes to tumor development and progression and metastasis often arises in acute and chronic inflammatory skin conditions and increased epidermal thickness is a sign of sUV-induced inflammatory responses. To examine the effect of rocuronium bromide on SSL-induced acute skin inflammation, H&E (haemotoxylin and eosin) staining on SSL-exposed skin tissues of SKH-1 hairless mouse skin was performed. FIG. 15 is a photographic array comparing epidermal thickness in mouse skin samples exposed to one or more of SSL, rocuronium bromide, and betamethasone 17-valerate. FIG. 16 is a photographic array comparing expression of phosphorylated PRPK in immunologically stained mouse skin samples exposed to one or more of SSL, rocuronium bromide, and […]. A cream carrier was used to apply the rocuronium bromide or betamethasone 17-valerate. […] In contrast, application of rocuronium bromide or betamethasone-17-valerate attenuated sUV-induced increases in epidermal thickness and PRPK expression compared to the untreated sUV-exposed group (FIGS. 15 and 16).
FIG. 17 is a photograph illustrating a chromatographic plate comparing the phosphorylation of PRPK in mouse skin tissue samples treated or not treated with rocuronium bromide and exposed or not exposed to SSL. FIG. 18 is a photograph illustrating a chromatographic plate comparing the phosphorylation of PRPK in mouse skin tissue samples treated or not treated with betamethasone 17-valerate and exposed or not exposed to SSL. Topical treatment with rocuronium bromide (FIG. 17) or betamethasone-17-valerate (FIG. 18) decreased phosphorylation of PRPK in sUV-treated mouse skin.

[4] = test system: IFN-γ, IL-12 and PGE2; test: Immune system markers (IFN-γ, IL-12, PGE2, T-cell markers) in the SSL-induced prevention models; assay type: in vivo, mouse; details: for T cell infiltrates in mouse skin: CD3, CD4 markers; for production of IFN-γ in mouse serum: ELISA; for production of IFN-γ in mouse serum / production of IL-12 in mouse serum / production of IL-12 in mouse skin: SSL-induced prevention models; for PGE2 levels in the skin: SSL-exposed skin
Source text: Exposure to UV radiation suppresses the immune response and UV-induced immune suppression is a major risk factor for skin cancer. In particular, UV exposure induces the production of Th2-associated cytokines and interferes with antigen presentation to Th1 cells producing IFN-γ. To determine whether rocuronium bromide or betamethasone 17-valerate affects the immune system response, the level of immune system markers, including interferon-γ (IFN-γ), interleukin-12 (IL-12) and prostaglandin E2 (PGE2), in mouse serum and the T-cell markers, CD3 and CD4, were examined. CD3 is associated with the T-cell receptor (TCR) and is essential in signal transduction in T cells following TCR activation. Tumor microenvironment-mediated down-regulation of TCR-associated signaling leads to the inhibition of T cell function and antitumor immunity in the tumor-bearing host. Very few T cells are observed in the epidermis and dermis of solar UV-induced SCCs.
SSL-induced immunosuppressive responses are associated with production of Th2-related cytokines (IL-10) and disturbance of antigen presentation to Th1 cells producing IFN-γ. Therefore, SSL-induced immunosuppression could be prevented by the Th1 cytokine, IFN-γ. An enzyme-linked immunosorbent assay (ELISA) was performed to examine IFN-γ levels in mouse serum. FIG. 25A is a chart comparing the effect of rocuronium bromide treatment on enhancement of IFN-γ production by immune cells in an early-stage SSL-induced prevention model. IL-12 is an immunoregulatory cytokine to reverse UV-induced DNA damage and immunosuppression, and also regulates the function and development of Th1 type cells by stimulating IFN-γ production. Furthermore, treatment with recombinant IL-12 reversed the UV-induced immunosuppression. Additionally, PGE2 plays a key role as an activator of UV-induced immunosuppression through its down-regulation of the levels of IL-12. Thus, the effects of PRPK inhibitors on SSL-induced changes on the immunoregulatory cytokines, IL-12 and PGE2, were investigated.

Row | Structure (SMILES) | binding to PRPK in A431 lysates [1] | SSL-induced phosphorylation of PRPK [2] | sUV-induced increase in PRPK expression [3] | sUV-induced increase in epidermal thickness [3] | phosphorylation of PRPK in sUV-treated mouse skin [3] | sUV-induced phosphorylation on increasing the concentration [3] | T cell infiltrates in mouse skin [4] | production of IFN-γ in mouse serum [4] | PGE2 levels in the skin [4] | production of IL-12 in mouse serum [4] | production of IL-12 in mouse skin [4]
1 | C=CC[N+]1([C@H]2C[C@H]3[C@@H]4CC[C@H]5C[C@H](O)[C@@H](N6CCOCC6)C[C@]5(C)[C@H]4CC[C@]3(C)[C@H]2OC(C)=O)CCCC1 [rocuronium bromide] | binds | inhibited | attenuated | attenuated | decreased | further reduced | dense T cell infiltrates | increased | decreased | increased | increased
2 | CCCCC(=O)O[C@]1(C(=O)CO)[C@@H](C)C[C@H]2[C@@H]3CCC4=CC(=O)C=C[C@]4(C)[C@@]3(F)[C@@H](O)C[C@@]21C [betamethasone 17-valerate] | binds | inhibited | attenuated | attenuated | decreased | further reduced | dense T cell infiltrates | increased | decreased | increased | increased

— US12233073B2, “Skin care formulations and skin cancer treatment” (Regents of the University of Minnesota, priority 2017, dated 2025)
